What was measured:
Format in all cases: binding
[1] = target: T1, TAMRA-nNOS/PSD-95-PDZ2 interaction (Homo sapiens, UniProt P29475+P78352, V36C); experiment: 'direct' FP assay, TAMRA-nNOS / PDZ2 (saturation and inhibition)
T1 construct: nNOS-PDZ (12–130, human); PDZ2 (155-249); made in house; host or cells: E. coli
Experimental: The assay was established by creating a fluorescent version of nNOS-PDZ by TAMRA-labelling nNOS-PDZ via an introduced cysteine residue (V36C). […] However, up to 7.3 μM no inhibition of TAMRA-nNOS/PSD-95-PDZ interactions could be measured (data not shown).
(a) Saturation curves between TAMRA-nNOS (5 nM) and PDZ1, PDZ2, and PDZ1-2 of PSD-95. […] Error bars indicate SEM based on three individual measurements.
nNOS-PDZ (12–130, human) and α-Syntrophin-PDZ (82–200, human), both comprising an N-terminal His-tag/FXa-site sequence ([…]), were likewise expressed in E. coli and purified by HisTrap chromatography followed by gel-filtration as described in details previously. To make the TAMRA-labelled nNOS-PDZ, mutant nNOS-PDZ (V36C) protein was generated by standard site-directed mutagenesis and characterized as described previously. […]
(§1) Incubation time was 10–15 minutes (room temperature), and the assay was performed in a 1 × TBS buffer (150 mM NaCl, 10 mM Tris, pH 7.4) using black flat-bottom 384-well plates (Corning Life Sciences, NY) and a Safire2 plate-reader (Tecan, Männedorf, Switzerland). […] TAMRA- and Cy5-probes were measured at excitation/emission values of 530/585 nm (bandwidth = 20 nm) and 635/670 nm (bandwidth = 15 nm), respectively. […]

[2] = target: T2, α1-Syntrophin-PDZ/nNOS-PDZ interaction (Homo sapiens, UniProt P29475); experiment: 'indirect' FP assay, Cy5-Sapk3 / α-Syntrophin-PDZ / nNOS-PDZ; settings: up to 500–600 μM; Cy5-Sapk3 5 nM / α-Syntrophin-PDZ 14 μM / nNOS-PDZ 10 μM
T2 construct: nNOS-PDZ (12–130, human); α-Syntrophin-PDZ (82–200, human); made in house; host or cells: E. coli
T2 sequence (P29475 12-130): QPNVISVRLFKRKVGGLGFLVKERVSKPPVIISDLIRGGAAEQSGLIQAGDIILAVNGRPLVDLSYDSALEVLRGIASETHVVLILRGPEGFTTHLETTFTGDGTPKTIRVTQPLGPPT
Source text: First we tested a series of 23 fluorescent-labelled C-terminal peptide ligands (Supplementary Table S1) derived from PDZ-interacting proteins in order to find a probe with good activity towards the PSD-95 PDZ domains and no or little activity against nNOS-PDZ (Supplementary Fig. S1). The Cnskr2 probe fulfilled these selectivity criteria and was used to generate saturation curves with PDZ2 and PDZ1-2 of PSD-95 (Fig. 4a). […] Next, fixed concentrations of TAMRA-Cnskr2, PSD-95-PDZ2/1-2, and nNOS-PDZ were applied, corresponding to the conditions at IC50 of the nNOS-PDZ inhibition curve (Fig. 4b) where sensitivity of the assay is greatest. […] Here, we used the Sapk3-peptide as it has the desired high affinity to α1-Syntrophin-PDZ and low affinity to nNOS-PDZ (Supplementary Fig. S1).
The minor increases in mP at high concentrations, 260-2900 μM, were due to fluorescence artefacts.
Similar, this assay was established with Syntrophin-PDZ and Sapk3 as probe (Fig. 4d).
In all cases, the DMSO effect on the assay was tested and found negligible.

[3] = target: T3, TAMRA-nNOS/PSD-95-PDZ1-2 interaction (Homo sapiens, UniProt P29475+P78352, V36C); experiment: 'direct' FP assay, TAMRA-nNOS / PDZ1-2 (saturation and inhibition)
T3 construct: nNOS-PDZ (12–130, human); PDZ1-2 (61-249); made in house; host or cells: E. coli
T3 sequence (P29475 12-130 V36C): as the sequence (P29475 12-130) above, with V25C counted along it
T3 sequence (P78352 61-249): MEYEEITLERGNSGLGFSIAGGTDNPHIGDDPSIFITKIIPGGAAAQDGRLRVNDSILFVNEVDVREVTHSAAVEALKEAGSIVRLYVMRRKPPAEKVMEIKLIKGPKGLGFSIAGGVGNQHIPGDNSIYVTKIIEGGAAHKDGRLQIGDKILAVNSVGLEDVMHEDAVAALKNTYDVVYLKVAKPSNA
Source text: nNOS-PDZ (12–130, human) and α-Syntrophin-PDZ (82–200, human), both comprising an N-terminal His-tag/FXa-site sequence ([sequence]), were likewise expressed in E. coli and purified by HisTrap chromatography followed by gel-filtration as described in details previously[19]. To make the TAMRA-labelled nNOS-PDZ, mutant nNOS-PDZ (V36C) protein was generated by standard site-directed mutagenesis and characterized as described previously[19]. […]

PDZ2 of PSD-95 = target: T4, PDZ2 of PSD-95 (Homo sapiens, UniProt P78352); experiment: FP inhibition assay, Cy5-GluN2B probe / PDZ2; settings: concentrations reaching 500–1800 μM; Cy5-GluN2B 50 nM; [PDZ2] = 6 μM
T4 construct: PDZ2 (155-249); made in house; host or cells: E. coli BL21-DE3 pLysS
T4 sequence (P78352 155-249): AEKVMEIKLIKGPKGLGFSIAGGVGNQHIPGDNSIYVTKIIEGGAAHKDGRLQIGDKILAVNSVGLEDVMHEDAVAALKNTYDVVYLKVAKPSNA
Experimental: Fluorescent probes were made by attaching fluorophores (Cy5) to C-terminal 10- or 11-mer (C10 or C11) peptide ligands representing canonical and natural occurring protein partners (Supplementary Table S1). […] (Fig. 2).
(b) Cy5-GluN2B as probe (50 nM), [PDZ2] = 6 μM. (c) Cy5-CRIPT as probe (50 nM), [PDZ3] = 5 μM. […] Error bars indicate SEM based on three individual measurements. […]
as §1
FP values were fitted to the general equation: Y = Bottom + (Top–Bottom)/[1 + (10^(X-logIC50)*HillSlope)], where X is the logarithmic value of peptide/compound concentration, and Y is the experimental FP values. Competitive inhibition constants, Ki values, were calculated from the IC50 values to quantify affinities between test substance and protein[42]. […]

[4] = up to 7.3 μM (fluorescence artefacts above), data not shown

T1 sequence (P29475 12-130 V36C): as the sequence (P29475 12-130) above, with V25C counted along it
T1 sequence (P78352 155-249): as the sequence (P78352 155-249) above

Row | inhibition of TAMRA-nNOS/PDZ2 interaction [1, 4] | activity in indirect FP assay (α1-Syntrophin-PDZ/nNOS-PDZ) [2] | inhibition of TAMRA-nNOS/PDZ1-2 interaction [3, 4] | inhibition of probe-PDZ interaction (PDZ2) (PDZ2 of PSD-95) | inhibition of TAMRA-nNOS/PDZ2 interaction ([1]; tested at up to 1200 μM, TAMRA-nNOS 5 nM, PDZ2 2.5 μM) | inhibition of TAMRA-nNOS/PDZ1-2 interaction ([3]; tested at up to 1200 μM, TAMRA-nNOS 5 nM, PDZ1-2 0.3 μM) | SMILES
1 | no inhibition | no activity | no inhibition | did not inhibit |  |  | Oc1c(Cl)cc(Cl)cc1CNc1ccc2[nH]nnc2c1 [IC87201, 2-((1H-Benzo[d][1–3]triazol-5-ylamino)methyl)-4-6-dichlorophenol]
2 |  | no activity |  | did not inhibit | no activity | no activity | O=C(O)c1ccc(NCc2cc(Cl)cc(Cl)c2O)cc1O [ZL006, 4-((3,5-Dichloro-2-hydroxybenzyl)amino)-2-hydroxybenzoic acid]

Reference: PMC4503980 (Scientific Reports, 2015)
